Experimental data reported in the NIST ThermoML archive (doi:10.1016/j.fluid.2016.02.004).
± gives the expanded uncertainty stated by the source.

Test: activity coefficient (dimensionless); of the first substance listed, at infinite dilution; xn = mol fraction of the nth substance listed
Details: Liquid, Chromatography, x1 = 0

SMILES	activity coefficient (318.15 K)	activity coefficient (328.15 K)	activity coefficient (338.15 K)	activity coefficient (348.15 K)	activity coefficient (358.15 K)	activity coefficient (368.15 K)
CCO [ethanol] + CCCCn1cc[n+](C)c1.N#CN=C=[N-]	0.65 ± 0.044	0.658 ± 0.045	0.669 ± 0.045	0.677 ± 0.046	0.686 ± 0.046	0.694 ± 0.047
CCOC(C)=O [ethyl acetate] + CCCCn1cc[n+](C)c1.N#CN=C=[N-]	2.57 ± 0.17	2.68 ± 0.18	2.79 ± 0.19	2.91 ± 0.2	3 ± 0.2	3.11 ± 0.21
CCc1ccccc1 [ethylbenzene] + CCCCn1cc[n+](C)c1.N#CN=C=[N-]	4.78 ± 0.33	4.89 ± 0.33	5.07 ± 0.35	5.19 ± 0.35	5.33 ± 0.36	5.55 ± 0.38
CCCCCCC [heptane] + CCCCn1cc[n+](C)c1.N#CN=C=[N-]	91 ± 6.2	87.2 ± 6	83.9 ± 5.8	80.6 ± 5.5	77.8 ± 5.3	75.3 ± 5.2
C=CCCCC [hex-1-ene] + CCCCn1cc[n+](C)c1.N#CN=C=[N-]	26.4 ± 1.8	25.9 ± 1.8	25.5 ± 1.7	25.1 ± 1.7	24.7 ± 1.7	24.4 ± 1.7
CCCCCC [hexane] + CCCCn1cc[n+](C)c1.N#CN=C=[N-]	61.6 ± 4.2	59.3 ± 4.1	57.1 ± 3.9	55.2 ± 3.8	53.4 ± 3.7	51.7 ± 3.5
CC(C)c1ccccc1 [isopropylbenzene] + CCCCn1cc[n+](C)c1.N#CN=C=[N-]	7.3 ± 0.5	7.52 ± 0.51	7.72 ± 0.53	7.93 ± 0.54	8.11 ± 0.55	8.3 ± 0.6
CO [methanol] + CCCCn1cc[n+](C)c1.N#CN=C=[N-]	0.399 ± 0.034	0.408 ± 0.034	0.42 ± 0.035	0.431 ± 0.035	0.442 ± 0.036	0.46 ± 0.036
CCCC(=O)OC [methyl butanoate] + CCCCn1cc[n+](C)c1.N#CN=C=[N-]	3.46 ± 0.24	3.61 ± 0.25	3.75 ± 0.26	3.9 ± 0.27	4.03 ± 0.27	4.17 ± 0.28
COC(C)=O [methyl ethanoate] + CCCCn1cc[n+](C)c1.N#CN=C=[N-]	1.61 ± 0.11	1.71 ± 0.11	1.81 ± 0.12	1.9 ± 0.13	1.99 ± 0.14	2.09 ± 0.14
CCC(=O)OC [methyl propanoate] + CCCCn1cc[n+](C)c1.N#CN=C=[N-]	2.36 ± 0.16	2.47 ± 0.17	2.59 ± 0.18	2.7 ± 0.18	2.81 ± 0.19	2.92 ± 0.2
CC1CCCCC1 [methylcyclohexane] + CCCCn1cc[n+](C)c1.N#CN=C=[N-]	40.2 ± 2.8	38.3 ± 2.6	36.5 ± 2.5	35 ± 2.4	33.6 ± 2.3	32.4 ± 2.2
CCCCCCCCC [nonane] + CCCCn1cc[n+](C)c1.N#CN=C=[N-]	207 ± 14	193 ± 13	181 ± 12	171 ± 12	162 ± 11	153 ± 11
C=CCCCCCC [oct-1-ene] + CCCCn1cc[n+](C)c1.N#CN=C=[N-]	60.1 ± 4.1	58.9 ± 4	58 ± 4	57 ± 3.9	56.2 ± 3.8	55.5 ± 3.8
CCCCCCCC [octane] + CCCCn1cc[n+](C)c1.N#CN=C=[N-]	137 ± 9	129 ± 9	123 ± 8	116 ± 8	111 ± 8	106 ± 7
CCCC(C)=O [pentan-2-one] + CCCCn1cc[n+](C)c1.N#CN=C=[N-]	2 ± 0.14	2.11 ± 0.14	2.22 ± 0.15	2.32 ± 0.16	2.43 ± 0.17	2.53 ± 0.17
CCC(=O)CC [pentan-3-one] + CCCCn1cc[n+](C)c1.N#CN=C=[N-]	2.04 ± 0.14	2.16 ± 0.15	2.27 ± 0.15	2.38 ± 0.16	2.49 ± 0.17	2.6 ± 0.18
CCCCC [pentane] + CCCCn1cc[n+](C)c1.N#CN=C=[N-]	41.7 ± 2.9	40.1 ± 2.7	38.6 ± 2.6	37.3 ± 2.6	36.1 ± 2.5	34.9 ± 2.4
CCCO [propan-1-ol] + CCCCn1cc[n+](C)c1.N#CN=C=[N-]	0.826 ± 0.053	0.835 ± 0.054	0.844 ± 0.054	0.853 ± 0.055	0.862 ± 0.055	0.871 ± 0.056
CC(C)O [propan-2-ol] + CCCCn1cc[n+](C)c1.N#CN=C=[N-]	0.921 ± 0.058	0.93 ± 0.059	0.94 ± 0.059	0.948 ± 0.06	0.956 ± 0.06	0.963 ± 0.061
CCCc1ccccc1 [propylbenzene] + CCCCn1cc[n+](C)c1.N#CN=C=[N-]	7.36 ± 0.5	7.57 ± 0.52	7.78 ± 0.53	7.98 ± 0.54	8.15 ± 0.56	8.35 ± 0.57
c1ccncc1 [pyridine] + CCCCn1cc[n+](C)c1.N#CN=C=[N-]	0.845 ± 0.054	0.89 ± 0.06	0.94 ± 0.059	0.985 ± 0.062	1.03 ± 0.06	1.08 ± 0.07
C=Cc1ccccc1 [styrene] + CCCCn1cc[n+](C)c1.N#CN=C=[N-]	2.15 ± 0.15	2.28 ± 0.16	2.41 ± 0.16	2.53 ± 0.17	2.65 ± 0.18	2.78 ± 0.19
C1CCOC1 [tetrahydrofuran] + CCCCn1cc[n+](C)c1.N#CN=C=[N-]	1.55 ± 0.1	1.63 ± 0.11	1.71 ± 0.11	1.78 ± 0.12	1.85 ± 0.12	1.93 ± 0.13
c1ccsc1 [thiophene] + CCCCn1cc[n+](C)c1.N#CN=C=[N-]	1.14 ± 0.07	1.22 ± 0.08	1.29 ± 0.08	1.36 ± 0.09	1.43 ± 0.09	1.5 ± 0.1
Cc1ccccc1 [toluene] + CCCCn1cc[n+](C)c1.N#CN=C=[N-]	2.89 ± 0.2	3.01 ± 0.2	3.15 ± 0.21	3.27 ± 0.22	3.4 ± 0.2	3.54 ± 0.24
O [water] + CCCCn1cc[n+](C)c1.N#CN=C=[N-]	0.31 ± 0.03	0.323 ± 0.032	0.336 ± 0.032	0.349 ± 0.032	0.363 ± 0.033	0.376 ± 0.033
